Test results reported in ChEMBL document CHEMBL1649146, “Contribution of the autolysin AtlA to the bactericidal activity of amoxicillin against Enterococcus faecalis JH2-2” (2009).
Values after ≈ are worked out from the molar mass of the structure shown. Active and inactive are the calls of the source. The calls are words filed in the database; no cut-off is given here.

What was measured:
Enterococcus faecalis [1] = assay: Antibacterial activity against atlA-deficient Enterococcus faecalis JH2-2 assessed as decrease in bacterial count at 2 ug/ml by macrodilution method; format: functional; set-up: scale not given: the % may be the effect or the level left
Enterococcus faecalis [2] = assay: Antibacterial activity against Enterococcus faecalis JH2-2 assessed as bacterial killing at 2 ug/ml by macrodilution method; format: functional, organism-based
Enterococcus faecalis [3] = assay: Antibacterial activity against atlA-deficient Enterococcus faecalis JH2-2 assessed as bacterial killing at 2 ug/ml by macrodilution method; format: functional, organism-based
Enterococcus faecalis [4] = assay: Antibacterial activity against Enterococcus faecalis JH2-2 assessed as decrease in decrease in bacterial count at 2 ug/ml after 3 hrs by macrodilution method; format: functional
Enterococcus faecalis [5] = assay: Antibacterial activity against Enterococcus faecalis JH2-2 assessed as decrease in decrease in bacterial count at 2 ug/ml after 6 hrs by macrodilution method; format: functional
Enterococcus faecalis [6] = assay: Antibacterial activity against Enterococcus faecalis JH2-2 assessed as decrease in decrease in bacterial count at 2 ug/ml after 24 hrs by macrodilution method; format: functional
Enterococcus faecalis [7] = assay: Antibacterial activity against atlA-deficient Enterococcus faecalis JH2-2 assessed as decrease in decrease in bacterial count at 2 ug/ml after 3 hrs by macrodilution method; format: functional
Enterococcus faecalis [8] = assay: Antibacterial activity against atlA-deficient Enterococcus faecalis JH2-2 assessed as decrease in decrease in bacterial count at 2 ug/ml after 6 hrs by macrodilution method; format: functional
Enterococcus faecalis [9] = assay: Antibacterial activity against atlA-deficient Enterococcus faecalis JH2-2 assessed as decrease in decrease in bacterial count at 2 ug/ml after 24 hrs by macrodilution method; format: functional
Enterococcus faecalis [10] = assay: Antibacterial activity against Enterococcus faecalis JH2-2 infected in New Zealand White rabbit assessed as bacterial count per gram vegetation at 50 mg/kg, im TID for 3 days administered 48 hrs post bacterial challenge (reference value: 9.40+/-0.62 log10 CFU/g); format: functional; details: route intramuscular
Enterococcus faecalis [11] = assay: Antibacterial activity against atlA-deficient Enterococcus faecalis JH2-2 infected in New Zealand White rabbit assessed as bacterial count per gram vegetation at 50 mg/kg, im TID for 3 days administered 48 hrs post bacterial challenge (reference value: 8.34+/-1.66 log10 CFU/g); format: functional; details: route intramuscular
Enterococcus faecalis [12] = assay: Ratio of MBC to MIC in Enterococcus faecalis JH2-2; format: functional
Enterococcus faecalis [13] = assay: Ratio of MBC to MIC in atlA-deficient Enterococcus faecalis JH2-2; format: functional
Enterococcus faecalis [14] = assay: Antibacterial activity against Enterococcus faecalis JH2-2 by macrodilution method; format: functional
Enterococcus faecalis [15] = assay: Antibacterial activity against atlA-deficient Enterococcus faecalis JH2-2 by macrodilution method; format: functional

## CC1(C)S[C@@H]2[C@H](NC(=O)[C@H](N)c3ccc(O)cc3)C(=O)N2[C@H]1C(=O)O [AMOXICILLIN]
Enterococcus faecalis [1]
  Activity: >=99.9%
Enterococcus faecalis [2]
  Activity: Active
Enterococcus faecalis [3]
  Activity: Active
Enterococcus faecalis [4]
  log10CFU/ml: 2.57
Enterococcus faecalis [5]
  log10CFU/ml: 5.59
Enterococcus faecalis [6]
  log10CFU/ml: 7.82
Enterococcus faecalis [7]
  log10CFU/ml: 1.5
Enterococcus faecalis [8]
  log10CFU/ml: 3.93
Enterococcus faecalis [9]
  log10CFU/ml: 6.46
Enterococcus faecalis [10]
  log10CFU/g: 7.69
Enterococcus faecalis [11]
  log10CFU/g: 8.55
Enterococcus faecalis [12]
  Ratio: 4
Enterococcus faecalis [13]
  Ratio: >=32
Enterococcus faecalis [14]
  MBC: 2 µg/mL (≈ 5.47 µM)
  MIC: 0.5 µg/mL (≈ 1.37 µM)
Enterococcus faecalis [15]
  MBC: > 1020 µg/mL
  MIC: 1 µg/mL (≈ 2.74 µM)
